{
  "source": "patent US6635242B2",
  "about": "“Broad spectrum microbicidal and spermicidal compositions, devices, and methods” (The Pennsylvania State University, priority 1998, dated 2003)",
  "key": {"[1]": {"system": "HPV 11", "experiment": "Human papilloma induction: HPV 11 in human foreskin xenografts in athymic mice", "assay_type": "in vivo, human papillomavirus", "protocol": "Stocks of experimentally generated infectious HPV 11 were prepared and represented 10% w/v cell free extracts of virus in PBS. Undiluted aliquots of virus stocks (39 μl ) were mixed with a 40×solution of SDS 1 μl ), incubated at 37° C. for 10 min and immediately used to infect split thickness grafts of newborn human foreskin epithelium. Virus was not subsequently diluted. Control grafts were infected with untreated virus stock. Virus adsorption was for 1 hr at 37° C. […] Grafts were then transplanted beneath the renal capsule of athymic mice. Animals were maintained in isolator bubbles with antibiotic supplemented drinking water in the animal colony of the Hershey Medical Center. Three months following infection, animals were sacrificed, their kidneys were removed, and the xenografts were grossly examined. The remaining organs were examined for any apparent abnormalities and none were found. Portions of each graft were immediately fixed in 10% neutral-buffered formalin and processed by standard histologic techniques for staining with hematoxylin and eosin.\nStandard stocks of HPV 11 were used as undiluted virus. These virus stocks normally induce Condylomata in 90-100% of infected xenografts when diluted 1000 fold. […] Infection was then carried out for 1 hr and the grafts subsequently transplanted in vivo. Eight animals (16 kidneys) received grafts infected with SDS treated virus and 9 animals (17 kidneys) received normal virus. […] In the normal infections, 17 of 17 grafts survived and of these, 14 were transformed morphologically upon histologic examination and had typical papillomatous appearance."}, "[2]": {"system": "split thickness grafts of neonatal foreskin", "experiment": "SDS exposure and viability of human foreskin xenografts", "assay_type": "in vivo", "conditions": "0.05% SDS, no virus; immediately and days 1, 5, 11 and 20", "protocol": "A second set of control grafts was exposed only to identical concentrations of SDS and no virus. These grafts were harvested on days 1, 5, 11 and 20 following transplantation in order to follow the viability and growth of the grafts after SDS exposure.\nBecause of concern about the potential for SDS to kill human epithelium, control experiments were performed in which split thickness grafts of neonatal foreskin were exposed to 0.05% SDS alone and then subsequently grafted. All conditions in this experiment were identical to those used in the HPV 11 infections with treated virus, except that virus was not present. SDS-exposed grafts (2 animals at each time) were harvested, fixed and sectioned immediately after exposure, and on days 1, 5, 11 and 20 after treatment. […] The original split thickness grafts were approximately 1 mm×1 mm×1 mm in size; in addition they were punctured many times with the tip of a needle in order to allow entrance of the HPV 11 and/or the SDS into the epithelial layers. Although it is possible that some epithelial cells may have been damaged or killed during SDS exposure, damage was minimal and epithelial growth in the grafts was normal."}, "[3]": {"system": "HIV-1-infected SupT1 cells", "experiment": "Cell-associated HIV-1 infectivity (FIG. 6)", "assay_type": "cell-based, human immunodeficiency virus", "conditions": "10 min at 37° C., co-culture with HCLB cells, FIG. 6(a)", "protocol": "(A) SupT1 T lymphocytes (8×10^4)infected 5 days prior with HIV-1 strain IIIB were pelleted and resuspended in new media to remove cell-free virus. After exposure to selected concentrations of each microbicide for 10 min at 37° C., the cells were diluted 1:10 and co-cultured with HCLB cells for 2 h. Following one wash with PBS to remove the infected lymphocytes, the indicator cells were cultured and assayed. Infectivity following exposure is expressed as a percentage relative to the number of β-gal-positive cells in duplicate wells infected with HIV-1 infected SupT1 cells incubated in the absence of a microbicidal compound. Results shown in FIG. 6(a) are the average cell counts for a total of four wells per concentration in two independent experiments. (B) SupT1 T lymphocytes (8×10^4) were incubated with selected concentrations of each microbicide for 10 min at 37° C., and then diluted 1:10 with new media. Following a 2 h incubation period, the cells were assessed for viability. Cell survival after treatment is expressed as the fraction of viable cells relative to the number of mock-exposed cells. Results shown in FIG. 6(b) are the average of two experiments in which triplicate wells for each concentration were assayed."}, "[4]": {"system": "HSV-2", "experiment": "Protection of mice from vaginal infection with live HSV-2", "assay_type": "in vivo, herpes simplex virus", "conditions": "Swiss-Webster mice", "protocol": "The following data represent an in vivo experiment to test both the toxicity and the efficacy of SDS in the protection of mice from vaginal infection with live herpes simplex virus (HSV-2).\nThe experiment used outbred, female, Swiss-Webster mice. Mice were anesthetized and then SDS or control solutions (25μl ) was instilled into the vagina using a yellow pipette tip. The SDS was not formulated into a vaginal cream or foam but merely dissolved into phosphate buffered saline. These solutions have low viscosity. Fluids were instilled into groups of 10 mice at one time. Following administration of SDS or control solutions to the group of 10, then an additional 25 μof virus or control fluid was instilled. Mice were allowed to recover from the anesthesia and then the mice were checked daily for symptoms, beginning on day three and until 12 days after inoculation. Vaginal swabs were also performed on the mice on a daily basis, beginning on day three, in order to determine shedding of virus. FIGS. 3A-3G show the total symptoms per group on days 3 through 12 for each of the following symptoms: swelling, vaginal exudate, redness, death, leg paralysis, perianal hair loss and any symptom."}, "[5]": {"system": "Bovine sperm", "experiment": "Bovine sperm motility following detergent addition", "assay_type": "cell-based", "set-up": "key to Bovine Sperm Motility Following Detergent Addition: +++: Vigorous swimming; ++/−: Many swimmers/some dead; +/−: Occasional swimmer/most dead; −: All dead", "from_the_text": "The following data represent an in vitro experiment to test the efficacy of SDS and other detergents as spermicidal agents. Frozen samples of bull semen were obtained, thawed and placed in a test tube. Aliquots were taken out and put in a separate test tube where they were mixed with detergent (SDS, C31G, N-9 or a mixture of SDS and N-9) to a final percent as listed in Tables 8 and 9 below. After mixing, the samples were immediately placed on a microscope slide and visually examined for sperm movement. The experiment was conducted one sample at a time so that the visual examination was conducted immediately after addition of detergent to the sample. As a result, indications in the table of complete inactivation indicate virtually instantaneous inactivation of the sperm. […] Occasional swimmers means very few, on the order of approximately 1% of the population of sperm present in the sample, indicating approximately 99% of the sperm were inactivated by the detergent."}, "[6]": {"conditions": "0.025 % SDS during treatment (as printed in Table 5), grafts harvested after three months"}, "[7]": {"conditions": "undiluted HPV 11 treated with 0.05% SDS, 37° C. 10 min"}},
  "data": [
    {"compound": "CCCCCCCCCCCCOS(=O)(=O)[O-].[Na+]", "note": "[SDS, Sodium dodecyl sulfate]", "values": [
      {"measurement": "surviving grafts/ transplanted grafts", "setting": "[1]; [6]", "value": "13/16"},
      {"measurement": "total papillomas", "setting": "[1]; [6]", "value": 0},
      {"measurement": "prevention of HPV 11 infection of xenografts", "setting": "[1]; [7]", "value": "effectively prevented virus infection"},
      {"measurement": "xenografts showing viable tissue at harvest (normal, viable differentiating human epithelium)", "setting": "[1]; [7]", "value": "13 out of 16"},
      {"measurement": "viability of grafts exposed to SDS alone (histology)", "setting": "[2]", "value": "fully viable epithelium on all days and no apparent necrosis"},
      {"measurement": "cell-associated infectivity of HIV-1-infected SupT1 cells", "setting": "[3]", "value": "can reduce the cell-associated infectivity"},
      {"measurement": "protection from HSV-2 inoculation of the vagina, dose response", "setting": "[4]; 4% SDS", "value": "most protection"},
      {"measurement": "protection from HSV-2 inoculation of the vagina (symptoms days 3-12)", "setting": "[4]; all concentrations of SDS (0.5%, 1%, 2%, 4%) in PBS, 25 μl intravaginal", "value": "significant protection"},
      {"measurement": "Bovine Sperm Motility Following Detergent Addition", "setting": "[5]; Table 8, 0.0125% detergent", "value": "+/−"},
      {"measurement": "timing of sperm inactivation", "setting": "[5]; Table 8, 0.0125% detergent, delayed = approximately 10 minutes", "value": "(delayed)"},
      {"measurement": "Bovine Sperm Motility Following Detergent Addition", "setting": "[5]; Table 8, 0.025% detergent", "value": "−"},
      {"measurement": "Bovine Sperm Motility Following Detergent Addition", "setting": "[5]; Table 8, 0.5% detergent", "value": "−"},
      {"measurement": "Bovine Sperm Motility Following Detergent Addition", "setting": "[5]; Table 8, 1% detergent", "value": "−"},
      {"measurement": "Bovine Sperm Motility Following Detergent Addition", "setting": "[5]; Table 8, 2% detergent", "value": "−"},
      {"measurement": "Bovine Sperm Motility Following Detergent Addition", "setting": "[5]; Table 9, 0.125% detergent", "value": "++/−"},
      {"measurement": "Bovine Sperm Motility Following Detergent Addition", "setting": "[5]; Table 9, 0.25% detergent", "value": "++/−"},
      {"measurement": "Bovine Sperm Motility Following Detergent Addition", "setting": "[5]; Table 9, 0.5% detergent", "value": "++/−"},
      {"measurement": "Bovine Sperm Motility Following Detergent Addition", "setting": "[5]; Table 9, 1% detergent", "value": "++/−"},
      {"measurement": "Bovine Sperm Motility Following Detergent Addition", "setting": "[5]; Table 9, 2% detergent", "value": "+/−"}
    ]}
  ]
}
